A short description of assay [1]: blockade of melanocortin 4 receptor signaling – cell-based, plate reader, cherry pick, counter-screen for LGR2 antagonist project, dose response (AID 743444).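 Also: transfected HEK 293 cells stimulated with alpha-MSH peptide; potency of inhibitors of the alpha-MSH evoked signal.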 Type of assay: functional. A general note: Counterscreens check selectivity or assay interference.
A short description of assay [2]: blockers of bursicon-stimulated LGR2 cAMP reporter – cell-based, HEK293, CRE-luciferase reporter, cherry pick, set 2, dose response (AID 743343).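 Also: transfected cells were stimulated with diluted bursicon conditioned medium after compound addition.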 Type of assay: functional.
A short description of assay [3]: A549 cell cytotoxicity, dose response, cytotoxicity control, plate reader, cherry-pick, antagonist series (AID 743412). Type of assay: functional, cell-based.
Assay [4] is described as follows: toxicity toward HepG2 liver cells – cell-based, plate reader, cherry-pick, antagonist series, cytotoxicity control, dose response (AID 743416). Type of assay: functional.
The target of assay [5] is T1, Polyadenylate-binding protein 1 (Homo sapiens, UniProt P11940). Nature of the assay: MLLE domain peptide-binding blockers, IC50 – biochemical, fluorescence polarization, FITC-PAM2 peptide, dose response (AID 602259). Type of assay: functional. Conditions: read-out: IC50_Mean. Background: Fluorescence polarisation rises when a labelled molecule tumbles more slowly, as on binding a larger partner.
T1 sequence (P11940 whole entry, the tested form may be a part): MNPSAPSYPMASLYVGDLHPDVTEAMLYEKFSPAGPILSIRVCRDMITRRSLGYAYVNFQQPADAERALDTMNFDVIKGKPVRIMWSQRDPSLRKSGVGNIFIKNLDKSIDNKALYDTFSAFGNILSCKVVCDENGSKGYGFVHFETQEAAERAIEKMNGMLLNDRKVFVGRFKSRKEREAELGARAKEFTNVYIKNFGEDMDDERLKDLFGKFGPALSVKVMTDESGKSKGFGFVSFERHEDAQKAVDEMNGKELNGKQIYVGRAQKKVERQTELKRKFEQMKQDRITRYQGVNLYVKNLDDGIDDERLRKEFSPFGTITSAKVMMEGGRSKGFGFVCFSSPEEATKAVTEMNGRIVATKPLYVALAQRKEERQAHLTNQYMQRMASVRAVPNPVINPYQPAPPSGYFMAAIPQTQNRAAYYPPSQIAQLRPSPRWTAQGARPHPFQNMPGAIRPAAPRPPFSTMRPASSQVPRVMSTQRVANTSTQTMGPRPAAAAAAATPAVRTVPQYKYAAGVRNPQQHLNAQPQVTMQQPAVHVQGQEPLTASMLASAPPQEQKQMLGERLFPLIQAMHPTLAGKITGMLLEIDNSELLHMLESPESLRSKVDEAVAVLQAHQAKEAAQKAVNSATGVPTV

The target in assay [6] is T1, Polyadenylate-binding protein 1. Nature of the assay: MLLE binding blockers, Cy5 peptide tracer – biochemical, fluorescence polarization, Cy5-PAM2 peptide, secondary, miRNA deadenylation inhibitor project, dose response (AID 602260). Type of assay: functional. Conditions: read-out: IC50_Mean.
The target of another assay is Large T antigen (Simian virus 40, UniProt P03070). Type of assay: functional, Betapolyomavirus macacae.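 Also: Confirmatory-stage PubChem screen for compounds that inhibit SV40 T antigen.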
Sequence of Large T antigen (P03070 whole entry): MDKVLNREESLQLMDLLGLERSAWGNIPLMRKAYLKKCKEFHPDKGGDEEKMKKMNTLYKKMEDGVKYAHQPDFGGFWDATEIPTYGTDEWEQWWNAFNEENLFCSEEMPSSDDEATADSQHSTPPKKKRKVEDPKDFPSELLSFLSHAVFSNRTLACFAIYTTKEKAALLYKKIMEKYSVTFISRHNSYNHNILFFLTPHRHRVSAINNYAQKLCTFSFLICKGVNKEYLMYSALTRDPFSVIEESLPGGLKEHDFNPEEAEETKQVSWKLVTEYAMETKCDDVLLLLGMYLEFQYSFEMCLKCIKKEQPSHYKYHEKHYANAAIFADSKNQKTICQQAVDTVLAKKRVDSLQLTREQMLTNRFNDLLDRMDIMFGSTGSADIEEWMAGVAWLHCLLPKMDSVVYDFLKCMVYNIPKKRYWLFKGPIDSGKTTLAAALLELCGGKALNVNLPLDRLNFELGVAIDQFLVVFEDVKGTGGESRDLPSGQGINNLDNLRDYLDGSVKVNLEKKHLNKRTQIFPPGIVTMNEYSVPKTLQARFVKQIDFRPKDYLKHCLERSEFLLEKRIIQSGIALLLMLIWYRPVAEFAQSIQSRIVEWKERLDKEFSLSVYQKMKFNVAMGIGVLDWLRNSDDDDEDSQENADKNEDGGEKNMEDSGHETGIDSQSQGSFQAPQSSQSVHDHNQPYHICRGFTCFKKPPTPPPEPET
In assay [7] the target is T2, Bifunctional protein GlmU (Mycobacterium tuberculosis, UniProt P9WMN3).
T2 sequence (P9WMN3 whole entry): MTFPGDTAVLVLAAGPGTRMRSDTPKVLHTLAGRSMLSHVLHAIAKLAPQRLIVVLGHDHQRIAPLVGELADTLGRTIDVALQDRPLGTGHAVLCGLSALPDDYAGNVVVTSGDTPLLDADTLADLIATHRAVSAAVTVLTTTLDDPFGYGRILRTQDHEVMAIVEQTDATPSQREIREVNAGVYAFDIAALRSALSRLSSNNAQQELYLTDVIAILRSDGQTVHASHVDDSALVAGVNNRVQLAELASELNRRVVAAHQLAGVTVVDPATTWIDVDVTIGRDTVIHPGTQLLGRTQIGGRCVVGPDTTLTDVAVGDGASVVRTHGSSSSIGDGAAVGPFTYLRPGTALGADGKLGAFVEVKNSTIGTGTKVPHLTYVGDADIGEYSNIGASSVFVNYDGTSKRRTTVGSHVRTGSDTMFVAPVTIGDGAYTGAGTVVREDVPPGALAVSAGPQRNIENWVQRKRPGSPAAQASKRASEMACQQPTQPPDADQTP
Put plainly: Inhibitors of Mycobacterial Glucosamine-1-phosphate acetyl transferase (GlmU). Secondary screen. Also noted: species or system Mycobacterium tuberculosis H37Rv.

The target in a further assay is Genome polyprotein (dengue virus type 2, UniProt P29990). Nature of the assay: flavivirus cap methylation enzyme inhibition – biochemical, confirmation dose response, primary screen (AID 588689). Type of assay: functional.
Sequence of Genome polyprotein (P29990 2492-3391 limits assumed): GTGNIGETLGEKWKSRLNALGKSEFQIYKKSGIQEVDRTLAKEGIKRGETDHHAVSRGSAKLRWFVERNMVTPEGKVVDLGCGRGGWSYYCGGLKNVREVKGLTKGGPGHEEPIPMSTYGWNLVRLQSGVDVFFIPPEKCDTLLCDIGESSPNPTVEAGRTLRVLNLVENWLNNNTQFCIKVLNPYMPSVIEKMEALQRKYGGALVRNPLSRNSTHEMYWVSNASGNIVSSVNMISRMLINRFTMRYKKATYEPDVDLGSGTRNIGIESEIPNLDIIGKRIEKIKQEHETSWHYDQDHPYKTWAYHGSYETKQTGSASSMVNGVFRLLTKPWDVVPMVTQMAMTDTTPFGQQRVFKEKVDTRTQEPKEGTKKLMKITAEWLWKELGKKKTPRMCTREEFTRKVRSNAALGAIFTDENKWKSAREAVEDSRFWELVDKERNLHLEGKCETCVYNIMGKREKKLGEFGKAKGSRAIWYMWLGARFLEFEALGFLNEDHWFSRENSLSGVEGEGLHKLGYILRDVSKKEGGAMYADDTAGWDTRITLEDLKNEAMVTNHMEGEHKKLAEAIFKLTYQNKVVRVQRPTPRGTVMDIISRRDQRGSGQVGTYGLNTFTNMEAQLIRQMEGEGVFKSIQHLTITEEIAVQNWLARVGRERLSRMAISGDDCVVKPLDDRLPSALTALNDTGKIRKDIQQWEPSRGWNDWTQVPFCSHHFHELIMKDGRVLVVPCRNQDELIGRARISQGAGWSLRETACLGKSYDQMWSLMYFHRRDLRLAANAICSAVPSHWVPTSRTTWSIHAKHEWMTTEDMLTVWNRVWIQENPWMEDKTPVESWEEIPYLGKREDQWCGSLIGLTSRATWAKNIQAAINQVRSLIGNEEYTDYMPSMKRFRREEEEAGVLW
Assay [8] in a line: activation of miR-122 Renilla sensor silencing – cell-based, Huh7 psiCHECK-miR122, Renilla luciferase, cherry-picked, dose response (AID 651956).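 Also: huh7 hepatoma cells stably carrying a psiCHECK-2 miR-122 sensor plasmid; renilla luciferase signal reporting endogenous miR-122 activity after 48 h compound exposure.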 Type of assay: functional.
Assay [9] in a line: general mammalian cell viability loss – inhibitor set, cherry-pick, set 2, cytotoxicity control for miR-122 modulator project, dose response (AID 720697). Type of assay: functional, cell-based.
Assay [10] in a line: inhibition of ADAM10 peptide cleavage – biochemical, FRET peptide substrate, recombinant human ADAM10, selectivity assay for ADAM17 exosite inhibitor project, dose response (AID 743259).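 Also: ADAM10 enzyme cleaving a FRET peptide substrate.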
In assay [11] the test system is BJ. Nature of the assay: BJ-TERT fibroblast viability loss – cell-based, RAS-independent, luminescence, dose response (AID 1933). Conditions: Homo sapiens. Type of assay: functional.
The target of the next assay is Paired box protein Pax-8 (Homo sapiens, UniProt Q06710). Nature of the assay: PAX8 transcriptional activity inhibition in RMG-I – RMG-I cells, luciferase, cherry-pick, dose response (AID 687027).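 Also: luciferase reporter driven by Pax8 target thyroperoxidase promoter measured by SteadyGlo luminescence.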 Type of assay: functional, cell-based.
Sequence of Paired box protein Pax-8 (Q06710 whole entry): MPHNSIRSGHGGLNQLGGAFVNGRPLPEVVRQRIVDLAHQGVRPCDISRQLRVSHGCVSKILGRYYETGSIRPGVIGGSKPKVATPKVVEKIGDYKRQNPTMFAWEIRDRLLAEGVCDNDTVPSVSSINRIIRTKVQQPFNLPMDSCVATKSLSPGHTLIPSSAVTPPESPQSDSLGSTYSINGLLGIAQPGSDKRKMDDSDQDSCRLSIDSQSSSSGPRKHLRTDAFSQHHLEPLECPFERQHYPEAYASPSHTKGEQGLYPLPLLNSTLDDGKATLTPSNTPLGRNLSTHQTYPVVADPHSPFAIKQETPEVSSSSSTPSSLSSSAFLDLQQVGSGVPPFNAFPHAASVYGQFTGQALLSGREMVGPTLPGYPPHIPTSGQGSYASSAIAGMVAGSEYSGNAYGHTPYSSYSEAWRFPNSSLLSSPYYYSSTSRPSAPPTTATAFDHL
Assay [12] in a line: DRD fibroblast viability loss – cell-based, non-viral oncogenic, luminescence, dose response (AID 1934). Type of assay: functional. Conditions: Homo sapiens.
Assay [13] can be described thus: general cell-killing toxicity readout – plate reader, dry powder samples, cytotoxicity control for PAX8 inhibitor project, dose response (AID 743021). Type of assay: functional, cell-based.
Assay [14] deals with BJ. Nature of the assay: cells. Type of assay: functional, cell-based. Conditions: Homo sapiens.
The subject of assay [15] is BJ. Nature of the assay: BJ-TERT-LT-ST fibroblast viability loss – cell-based, RAS-independent, luminescence, dose response (AID 1935).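 Also: BJ fibroblasts immortalized with TERT plus LT and ST oncogenes.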 Conditions: Homo sapiens. Type of assay: functional.
Assay [16] concerns the target Disintegrin and metalloproteinase domain-containing protein 17 (Homo sapiens, UniProt P78536). Nature of the assay: exosite inhibitors of ADAM17, dose response, biochemical (AID 743260).
Assay [17] can be described thus: general mammalian cell viability loss – activator set, cherry-pick, cytotoxicity control for miR-122 modulator project, dose response (AID 720690).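 Also: HEK293T human cells scored for general mammalian cytotoxicity.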 Type of assay: functional, cell-based.
Assay [18] concerns the target T3, Oxysterols receptor LXR-beta (Homo sapiens, UniProt P55055).
T3 sequence (P55055 whole entry): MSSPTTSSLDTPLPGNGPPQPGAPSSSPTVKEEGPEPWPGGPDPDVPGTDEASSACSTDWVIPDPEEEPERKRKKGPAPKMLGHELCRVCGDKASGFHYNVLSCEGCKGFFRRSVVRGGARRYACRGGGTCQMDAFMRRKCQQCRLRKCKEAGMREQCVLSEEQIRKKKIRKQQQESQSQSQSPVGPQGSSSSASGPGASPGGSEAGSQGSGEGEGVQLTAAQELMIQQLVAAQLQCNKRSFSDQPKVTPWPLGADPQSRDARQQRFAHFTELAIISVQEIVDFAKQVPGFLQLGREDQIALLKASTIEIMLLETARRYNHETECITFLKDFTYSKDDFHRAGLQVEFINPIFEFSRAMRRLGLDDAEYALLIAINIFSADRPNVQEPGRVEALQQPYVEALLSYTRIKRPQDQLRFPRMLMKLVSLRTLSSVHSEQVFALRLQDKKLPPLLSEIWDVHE
Nature of the assay: LXR agonists, Gal4 luciferase reporter, dose response, counter-screen for ssDAF-12 agonist project, cell-based, luminescence, HEK293, S. stercoralis campaign (AID 720737). Type of assay: functional. Conditions: read-out: IC50 (the source's name). A general note: In a reporter assay the amount or activity of a reporter protein is the signal.

Assay [19] is described as follows: Luminescence-based cell-based high throughput dose response assay to identify activators of the DAF-12 from the parasite S. stercoralis (ssDAF-12). Type of assay: functional.
Assay [20] in a line: OVCAR-3 cell viability loss – plate reader, dry powder samples, PAX8 inhibitor project, dose response (AID 743044). Type of assay: functional, cell-based.
Assay [21] is described as follows: P. falciparum Dd2 growth inhibitors, dose response, SYBR Green, cherry-picked samples (AID 1159567). Type of assay: functional, cell-based.
A short description of assay [22]: toxicity to human hepatoma HepG2 cells – cell-based, cherry-picked samples, cytotoxicity control, dose response (AID 1159577). Type of assay: functional.

Active and inactive are the calls of the source.

Sequence of Disintegrin and metalloproteinase domain-containing protein 17 (P78536 whole entry, the tested form may be a part): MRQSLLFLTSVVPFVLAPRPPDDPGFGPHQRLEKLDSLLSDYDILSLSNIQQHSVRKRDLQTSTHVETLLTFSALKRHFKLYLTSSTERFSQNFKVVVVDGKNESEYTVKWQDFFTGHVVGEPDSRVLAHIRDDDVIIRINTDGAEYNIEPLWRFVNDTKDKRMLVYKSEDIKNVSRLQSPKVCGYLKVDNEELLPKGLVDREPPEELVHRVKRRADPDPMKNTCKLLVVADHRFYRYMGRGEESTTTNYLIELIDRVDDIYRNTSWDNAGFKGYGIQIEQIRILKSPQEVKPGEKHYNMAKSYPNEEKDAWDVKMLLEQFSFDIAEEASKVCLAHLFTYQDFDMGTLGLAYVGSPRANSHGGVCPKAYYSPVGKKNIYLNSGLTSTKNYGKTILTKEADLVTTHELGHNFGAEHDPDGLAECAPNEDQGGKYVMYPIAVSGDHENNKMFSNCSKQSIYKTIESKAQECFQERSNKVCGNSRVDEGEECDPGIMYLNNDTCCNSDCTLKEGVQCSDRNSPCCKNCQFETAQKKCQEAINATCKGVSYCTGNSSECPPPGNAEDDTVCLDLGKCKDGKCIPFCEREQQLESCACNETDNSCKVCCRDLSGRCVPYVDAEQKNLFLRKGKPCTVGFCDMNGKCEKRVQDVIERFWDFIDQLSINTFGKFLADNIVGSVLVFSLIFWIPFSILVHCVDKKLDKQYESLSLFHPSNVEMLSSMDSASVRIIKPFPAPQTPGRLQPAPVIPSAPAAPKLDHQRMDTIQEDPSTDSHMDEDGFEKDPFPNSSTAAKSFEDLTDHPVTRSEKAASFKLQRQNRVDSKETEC

Turning to `O=C(O)c1cccc(-c2nc3ccccc3[nH]2)c1`, the AC50 in assay [1] is 1.5 µM (active); in assay [2], 1.54 µM (active); in [3], > 52 µM (inactive); in assay [4] it was > 52 µM (inactive).

As for `O=C(O)c1ccc(Nc2cc(Cl)c3nonc3c2[N+](=O)[O-])cc1`, the IC50 is > 66 µM (inactive) in [5]; > 66 µM (inactive) in [6]; 76.6 µM (active) at Large T antigen; 92 µM (active) in assay [7]; 12 µM (active) at Genome polyprotein.

Consider `O=S(=O)(Nc1nccs1)c1ccc(NS(=O)(=O)c2cccs2)cc1`, for which the results for the AC50 in [8] and in assay [9] were 20.1 µM (active) and 5.42 µM (active), respectively.

Consider `Sc1n[nH]c(-c2sccc2OCc2ccc(Cl)cc2Cl)n1`, for which the IC50 in assay [10] is > 69.5 µM (inactive).

As for `O=C(NC1CCCCC1)C(c1cccnc1)N(C(=O)CCl)c1ccccc1Cl` (stereo not drawn), the EC50 in the assay with BJ [11] was 3.94 µM (inconclusive); in assay [12], 37.3 µM (active); with BJ [14] it was > 150 µM (not active); in the assay with BJ [15], > 150 µM (not active). For the same compound, the half-maximal activity concentration (AC50) at Paired box protein Pax-8 was 6.05 µM (active); in assay [13] it was 11.2 µM (active).

`CCCn1c(CCNc2nc(-c3cccc(Br)c3)cs2)nc2ccccc21`: the IC50 in [10] and in assay [16] was > 69.6 µM (inactive) in each case.

`O=C(Nc1ccccc1)N1CCCCN2[C@@H](CO)[C@H](c3ccc(C4=CCCCC4)cc3)[C@@H]2C1`: the AC50 in assay [8] and in assay [17] was 10 µM (active) throughout.

As for `COc1ccc(S(=O)(=O)Nc2ccc3c(c2)CC(=O)N([C@@H](C)CO)C[C@@H](C)[C@H](CN(C)Cc2ccc(-c4ccccc4)cc2)O3)cc1`, the AC50 was 6.29 µM (active) at Paired box protein Pax-8 and 17.5 µM (active) in assay [17].

Turning to `Cc1onc(-c2ccccc2)c1C(=O)OCC(=O)c1ccc(F)cc1`, in assay [18], the EC50 was > 67.5 µM (inactive). In assay [19], the IC50 was > 67.5 µM (inactive).

Turning to `COCC(=O)N1CCCCN2[C@H](C1)[C@@H](c1ccc(-c3ccc(C)cc3)cc1)[C@@H]2CO`, the values for the AC50 (on Paired box protein Pax-8; in assay [20]) were 58.9 µM (active) and 56.3 µM (active), respectively.

For `C/C=C/c1ccc([C@@H]2[C@H](CO)N[C@H]2CN(CC(C)C)C(=O)c2ccccn2)cc1`, the AC50 in assay [17] was 23.5 µM (active).

For `CN(/N=C/c1cccnc1)c1cnc2ccccc2n1`, the EC50 in [18] was > 67.5 µM (inactive). For the same compound, in assay [19], the IC50 was > 67.5 µM (inactive).

For `OC[C@@H]1[C@H](c2ccc(-c3ccc(F)cc3)cc2)[C@H](CNC2CCCC2)N1CCC(F)(F)F`, the AC50 is 2.51 µM (active) in assay [21] and 16.5 µM (active) in assay [22].

A word on the AC50: it is the concentration giving half of the maximal activity seen.
